Test results taken from PubChem BioAssay (NCI).
Where “and” joins values, the source holds several entries; their conditions need not be identical. Equal values may be shown once.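 96-well plates; 48 h exposure; 5 concentrations. Endpoints by linear interpolation between flanking doses. Not reached: highest tested concentration assigned. The concentration for 50% growth inhibition is given as GI50. At the TGI there is no net growth.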

Experiments:
Experiment in all cases: NCI-60 cell line screen, 48 h
SNB-19 CNS = system: SNB-19 CNS
SN12C renal = system: SN12C renal
CCRF-CEM leukemia = system: CCRF-CEM leukemia
MDA-MB-435 = system: MDA-MB-435
U251 CNS = system: U251 CNS
SR leukemia = system: SR leukemia
TK-10 renal = system: TK-10 renal
M14 melanoma = system: M14 melanoma
SK-OV-3 ovarian = system: SK-OV-3 ovarian
OVCAR-8 ovarian = system: OVCAR-8 ovarian
MDA-MB-231 breast = system: MDA-MB-231 breast
UO-31 renal = system: UO-31 renal
SK-MEL-5 melanoma = system: SK-MEL-5 melanoma
HOP-92 NSCLC = system: HOP-92 NSCLC
DU-145 prostate = system: DU-145 prostate
IGROV1 ovarian = system: IGROV1 ovarian
SF-268 CNS = system: SF-268 CNS
SK-MEL-28 melanoma = system: SK-MEL-28 melanoma
UACC-62 melanoma = system: UACC-62 melanoma
HL-60(TB) leukemia = system: HL-60(TB) leukemia
NCI-H226 lung = system: NCI-H226 lung
SK-MEL-2 melanoma = system: SK-MEL-2 melanoma
MOLT-4 leukemia = system: MOLT-4 leukemia
ACHN renal = system: ACHN renal
786-0 renal = system: 786-0 renal
HCC-2998 colon = system: HCC-2998 colon
RPMI-8226 leukemia = system: RPMI-8226 leukemia
KM12 colon = system: KM12 colon
SF-539 CNS = system: SF-539 CNS
HT29 colon = system: HT29 colon
T-47D breast = system: T-47D breast
NCI-H522 lung = system: NCI-H522 lung
HS 578T breast = system: HS 578T breast
PC-3 prostate = system: PC-3 prostate
OVCAR-4 ovarian = system: OVCAR-4 ovarian
MCF7 breast = system: MCF7 breast
NCI/ADR-RES ovarian = system: NCI/ADR-RES ovarian
OVCAR-5 ovarian = system: OVCAR-5 ovarian
CAKI-1 renal = system: CAKI-1 renal
SF-295 CNS = system: SF-295 CNS
BT-549 breast = system: BT-549 breast
COLO 205 colon = system: COLO 205 colon
OVCAR-3 ovarian = system: OVCAR-3 ovarian
NCI-H23 lung = system: NCI-H23 lung
SNB-75 CNS = system: SNB-75 CNS
NCI-H460 lung = system: NCI-H460 lung
K-562 leukemia = system: K-562 leukemia
HCT-15 colon = system: HCT-15 colon
SW-620 colon = system: SW-620 colon
LOX IMVI melanoma = system: LOX IMVI melanoma
A498 renal = system: A498 renal
UACC-257 melanoma = system: UACC-257 melanoma
MALME-3M melanoma = system: MALME-3M melanoma
RXF 393 renal = system: RXF 393 renal
HOP-62 NSCLC = system: HOP-62 NSCLC
A549 NSCLC = system: A549 NSCLC
HCT-116 colon = system: HCT-116 colon

With `CCCCCc1c(C)[nH]c(/C=C2\N=C(c3ccc[nH]3)C=C2Oc2ccc(OC)cc2)c1C` the GI50 (SNB-19 CNS) was 440 nM and 98 nM, the TGI (SNB-19 CNS) was 1990 nM and the GI50 (SN12C renal) was 200 nM and 48.3 nM. The TGI (SN12C renal) was 1540 nM and 418 nM, the GI50 (CCRF-CEM leukemia) was 25.7 nM and the TGI (CCRF-CEM leukemia) was greater than 100000 nM. The GI50 (MDA-MB-435) was 149 nM and 33.1 nM, the TGI (MDA-MB-435) was 387 nM and 153 nM and the GI50 (U251 CNS) was 81.1 nM and 26 nM. The GI50 (SR leukemia) was 32.1 nM and 29.1 nM, the GI50 (TK-10 renal) was 335 nM and 43.9 nM and the TGI (TK-10 renal) was 1690 nM and 331 nM. For the same compound, the GI50 (M14 melanoma) was 167 nM and 23.4 nM, the TGI (M14 melanoma) was 458 nM and 63.5 nM and the GI50 (SK-OV-3 ovarian) was 392 nM and 141 nM. For the same compound, the TGI (SK-OV-3 ovarian) was 2250 nM and 1390 nM, the GI50 (OVCAR-8 ovarian) was 180 nM and 41.2 nM and the TGI (OVCAR-8 ovarian) was 1120 nM and 207 nM. The GI50 (MDA-MB-231 breast) was 83.3 nM and 11.7 nM, the GI50 (UO-31 renal) was 151 nM and 71.2 nM and the TGI (UO-31 renal) was 313 nM and 232 nM. The GI50 (SK-MEL-5 melanoma) was 84.4 nM and 18.7 nM, the TGI (SK-MEL-5 melanoma) was 217 nM and 46.6 nM and the GI50 (HOP-92 NSCLC) was 145 nM and 15.3 nM. The TGI (HOP-92 NSCLC) was 575 nM and 101 nM, the GI50 (DU-145 prostate) was 165 nM and 38.7 nM and the TGI (DU-145 prostate) was 4380 nM and 1520 nM. The GI50 (IGROV1 ovarian) was 244 nM and 92.5 nM, the TGI (IGROV1 ovarian) was 1490 nM and 3070 nM and the GI50 (SF-268 CNS) was 154 nM and 52.6 nM. The TGI (SF-268 CNS) was 1920 nM and 1460 nM, the GI50 (SK-MEL-28 melanoma) was 231 nM and 51.2 nM and the TGI (SK-MEL-28 melanoma) was 904 nM and 281 nM. The GI50 (UACC-62 melanoma) was 112 nM and 27.1 nM, the TGI (UACC-62 melanoma) was 272 nM and 72.5 nM and the GI50 (HL-60(TB) leukemia) was 209 nM. The TGI (HL-60(TB) leukemia) was 924 nM, the GI50 (NCI-H226 lung) was 118 nM and 139 nM and the GI50 (SK-MEL-2 melanoma) was 116 nM and 29.9 nM. The TGI (SK-MEL-2 melanoma) was 302 nM and 83.6 nM, the GI50 (MOLT-4 leukemia) was 107 nM and 48.1 nM and the TGI (MOLT-4 leukemia) was 1170 nM and 1670 nM. For the same compound, the GI50 (ACHN renal) was 180 nM and 48.2 nM, the GI50 (786-0 renal) was 141 nM and 40.4 nM and the TGI (786-0 renal) was 328 nM and 315 nM. The GI50 (HCC-2998 colon) was 96.3 nM and 36.9 nM, the TGI (HCC-2998 colon) was 6440 nM and 1910 nM and the GI50 (RPMI-8226 leukemia) was 89.6 nM and 31.3 nM. For the same compound, the TGI (RPMI-8226 leukemia) was 1130 nM and 332 nM, the GI50 (KM12 colon) was 55.5 nM and 31.4 nM and the TGI (KM12 colon) was 622 nM and 185 nM. The GI50 (SF-539 CNS) was 156 nM and 43.1 nM, the TGI (SF-539 CNS) was 551 nM and 212 nM and the GI50 (HT29 colon) was 68 nM and 21.4 nM. The TGI (HT29 colon) was 1940 nM and 1260 nM, the GI50 (T-47D breast) was 193 nM and 29.5 nM and the TGI (T-47D breast) was 968 nM and 1240 nM. The GI50 (NCI-H522 lung) was 13.5 nM, the TGI (NCI-H522 lung) was 190 nM and the GI50 (HS 578T breast) was 150 nM and 22.8 nM. The TGI (HS 578T breast) was 701 nM and 139 nM, the GI50 (PC-3 prostate) was 106 nM and 27.5 nM and the TGI (PC-3 prostate) was 1030 nM. The GI50 (OVCAR-4 ovarian) was 150 nM and 22.1 nM, the TGI (OVCAR-4 ovarian) was 2020 nM and the GI50 (MCF7 breast) was 66.7 nM and 35.8 nM. The TGI (MCF7 breast) was 1210 nM and 1150 nM, the GI50 (NCI/ADR-RES ovarian) was 370 nM and 203 nM and the TGI (NCI/ADR-RES ovarian) was 2130 nM and 1140 nM. For the same compound, the GI50 (OVCAR-5 ovarian) was 128 nM and 59.1 nM, the TGI (OVCAR-5 ovarian) was 4560 nM and 2020 nM and the GI50 (CAKI-1 renal) was 136 nM and 36.3 nM. For the same compound, the TGI (CAKI-1 renal) was 449 nM and 333 nM, the GI50 (SF-295 CNS) was 180 nM and 77.5 nM and the TGI (SF-295 CNS) was 735 nM and 437 nM. The GI50 (BT-549 breast) was 353 nM and 246 nM, the TGI (BT-549 breast) was 2600 nM and 2360 nM and the GI50 (COLO 205 colon) was 125 nM and 28 nM. The TGI (COLO 205 colon) was 502 nM and 190 nM, the GI50 (OVCAR-3 ovarian) was 156 nM and 41.4 nM and the TGI (OVCAR-3 ovarian) was 511 nM and 318 nM. For the same compound, the GI50 (NCI-H23 lung) was 258 nM and 80.6 nM, the TGI (NCI-H23 lung) was 2840 nM and 1550 nM and the GI50 (SNB-75 CNS) was 204 nM and 32.8 nM. The TGI (SNB-75 CNS) was 559 nM and 316 nM, the GI50 (NCI-H460 lung) was 85 nM and 38 nM and the TGI (NCI-H460 lung) was 1170 nM. The GI50 (K-562 leukemia) was 71.9 nM and 43.5 nM, the TGI (K-562 leukemia) was greater than 100000 nM and the GI50 (HCT-15 colon) was 113 nM. The TGI (HCT-15 colon) was 759 nM, the GI50 (SW-620 colon) was 58.7 nM and 25.2 nM and the TGI (SW-620 colon) was 1530 nM and 518 nM. The GI50 (LOX IMVI melanoma) was 40.6 nM and 19.7 nM, the TGI (LOX IMVI melanoma) was 289 nM and 53.4 nM and the GI50 (A498 renal) was 194 nM and 30.4 nM. For the same compound, the TGI (A498 renal) was 1190 nM and 234 nM, the GI50 (UACC-257 melanoma) was 125 nM and the TGI (UACC-257 melanoma) was 998 nM. For the same compound, the GI50 (MALME-3M melanoma) was 262 nM and 74.4 nM, the TGI (MALME-3M melanoma) was 1340 nM and 261 nM and the GI50 (RXF 393 renal) was 120 nM and 29.4 nM. The TGI (RXF 393 renal) was 567 nM and 244 nM, the GI50 (HOP-62 NSCLC) was 159 nM and 76.8 nM and the TGI (HOP-62 NSCLC) was 1690 nM and 1490 nM. For the same compound, the GI50 (A549 NSCLC) was 33.9 nM, the TGI (A549 NSCLC) was 165 nM and the GI50 (HCT-116 colon) was 37.3 nM and 26.9 nM. For the same compound, the TGI (HCT-116 colon) was 1130 nM and 127 nM.
